According to patent US20260355094A1, “COMBINATION OF AN ORGANOSILICON COMPOUND WITH A CROSSLINKED GLYCOSAMINOGLUCAN FOR PREVENTING AND REPAIRING CUTANEOUS AGEING” (LABORATOIRES FILL-MED MANUFACTURING, priority 2022, published 2026):

Columns and labels:
[1] = system: hyaluronan synthase type 2 (HAS2); details: in combination with resveratrol; human skin fibroblasts; cited from earlier work
[2] = system: collagen type I; details: in combination with resveratrol; human skin fibroblasts; cited from earlier work
[3] = system: elastin; details: in combination with resveratrol; human skin fibroblasts; cited from earlier work
[4] = system: fibroblasts; experiment: Contractile force of fibroblasts in equivalent dermis (Glassbox system); format: cell-based; details: 2.5 ng/ml, positive contraction control
Protocol: AFU+Si was tested to evaluate the effect on contractile force of fibroblasts in a Glassbox system, when compared to Si and AFU.
An equivalent dermis was developed in a culture box consisting of eight rectangular tanks. In each tank, two flexible blades were plunged, the lower parts of which were made up of grids on which the equivalent dermis clang during its polymerization. The equivalent dermis developed between the two blades to result in a rectangular shape slightly narrowed in the center.
Under the influence of the contraction forces developed by fibroblasts, the blades were deformed. Their deformation was measured in real time using optical fibers and adapted software. The deformation was proportional to the force developed within the equivalent dermis.
Prior to the test for contractile force, different concentrations of products diluted in cellular culture medium were tested for cellular viability. Among these, the following concentrations were chosen for the contractile force test: 0.005%, 0.05%, 0.0005% and 0.0025%.

Molecule	expression of hyaluronan synthase type 2 (HAS2) gene [1]	expression of collagen type I gene [2]	expression of elastin gene [3]	contractile forces [4]
C[SiH2]O.O=C[C@@H](O)[C@@H](O)[C@H](O)[C@H](O)C(=O)O [methylsilanol mannuronate]	promoting the expression	promoting the expression	promoting the expression	–
TGFβ1: used as a positive contraction control	–	–	–	significant increase in contractile forces
